Experimental data: patent publication US12414972B2 (University of South Florida, priority 2021, dated 2025)

Tests used:
mice gut = test: Oral administration of ethanolamine in mice; format: in vivo
Excerpt: (§1) RNA isolation and gene expression analyses.
(§2) miRNA profiling and expression analyses.

enteroids = test: Ethanolamine treatment of enteroids, expression analyses; format: cell-based, mouse
Experimental: Enteroids development and treatments. To develop mouse enteroids, entire small intestine was collected from mice and flushed with pre-cooled Dulbecco's phosphate buffered saline (DPBS). The lengthwise cut-opened ileum was washed with cooled PBS and fragmented into 2 mm small pieces, then transferred to a 50-ml conical flask containing cleaned pre-cooled PBS. Tissue fragments were incubated in the 25 ml of pre-warmed Trypsin (Gibco) on a rocking platform for 15 minutes. After removing the trypsin, tissue pieces were washed with 10 ml pre-cold PBS with 0.1% bovine serum albumin and filtered in a 50 ml conical tube through a 70 μm cell strainer (Falcon). These pieces were then centrifuged at 290×g for 5 min at 4° C., and the intestinal crypt-containing pallets were suspended in the 10 mL cold DMEM: F-12 (Gibco) and centrifuged at 500×g for 10 minutes followed by resuspending in 150 μL IntestiCult Organoid Growth Medium (StemCell) with […] gentamicin (Gibco). The Matrigel Matrix (Corning) was added to the suspension and the mixture of 50 μL was used to form a dome at the center of a prewarmed 24-well culture plate and incubated at 37° C. and 5% CO2 for 30 minutes to allow the Matrigel to set. To maintain the cultures, the IntestiCult Organoid Growth Medium was changed three times/week, and images were captured by from day 1 to 12. […] The organoids were harvested after 2 days of treatment(s) for miRNA, mRNA, and protein analyses. Experiments were repeated three times.
as §1, §2

miR101a-3p promoter = test: Promoter luciferase assay in Caco-2 cells; format: cell-based, Human
Experimental: Promoter luciferase assay. Caco-2 cells were seeded onto a 96-well plate at a density of 2×10^4 cells/well and transfected with miR101a-3p promoter pMK-RQ (KanR) reporter vector of 4 different nucleotide sequence (−1 to −500, −1 to −1000, −1 to −1500 and −1 to −2000) from its TSS (Transcription start site) and pMK-RQ (control vector using Lipofectamine 3000 transfection kit (Invitrogen). The TSS of miR101a-3p is located at position: chr1 65067704 (genome version hg38) as reported earlier. (Huang et al., 2017). The cells were collected at various time point (0, 1, 3, 5, 7 and 10 hrs) after transfection. The expression level of the firefly luciferase reporter gene was measured using Pierce Firefly Luciferase Glow Assay Kit.

Caco2 cells = test: Ethanolamine treatment of Caco2 cells, expression analyses; format: cell-based, Human
Excerpt: as §1, §2

Caco-2 cell monolayers = test: Transepithelial electric resistance (TEER) assay in Caco-2 cell monolayers; format: cell-based, Human; conditions: ethanolamine treatment, up to 8 hrs
Experimental: Transepithelial electric resistance (TEER) assay in Caco-2 cell monolayers. Human intestinal epithelial Caco-2 cells (American Type Culture Collection) were seeded on apical chamber made of polyester membrane filters with 0.4 μm pore size of 12-well transwell plates (Costar) at a density of 3×10^5/well. The culture medium from both apical and basolateral compartment were changed every two days. The cells were allowed to fully differentiate for 21 days; and fully differentiated cells were challenged with FCM and metabolites for next 8 hours with continuous measuring of TEER values, using an EVOM2 Epithelial Voltometer (WPI) according to the manufacturer's instruction. The blank inert resistance value (the insert with only culture media) was subtracted from the measured resistance value of each sample and final resistance in ohm×cm2 was calculated by multiplying the sample resistance by the area of the membrane.

[1] = oral, 100 mg/kg body weight, one dose, vs non-treated controls
[2] = among top 6 selected metabolites

- expression of Tjp1 mRNA in the Caco2 cells (Caco2 cells; [2]): most dramatically reduced
- expression of miR101a-3p in Caco2 cells (Caco2 cells; ethanolamine treatment): significantly increased
- expression (Arid3a) in Caco2 cells (Caco2 cells; ethanolamine treatment vs controls, FIG. 5M): significantly increased
- TEER in the monolayers of Caco2 cells (Caco-2 cell monolayers): reduced
Structure (SMILES): NCCO [ethanolamine]
- expression of miR101a-3p in the colon of mice (mice gut; ethanolamine treatment): significantly increased
- expression of miR101a-3p in the ileum of mice (mice gut; ethanolamine treatment): significantly increased
- expression of inflammatory markers (IL-1 β, IL-6 and TNF α) in the intestine (ileum) (mice gut; ethanolamine treatment in mice vs controls): significantly increased
- expression (Arid3a) in mouse intestine (mice gut; ethanolamine treatment vs controls, FIG. 5N): significantly increased
- leaky gut (FITC-dextran assay) (mice gut; oral, 100 mg/kg body weight, one dose, mice): significantly increased
- expression of (Tjp1) mRNA in the colon (mice gut; [1]): significantly reduced
- expression of (Tjp1) mRNA in the ileum (mice gut; [1]): significantly reduced
- expression of (Tjp1) protein in the ileum (mice gut; [1]): significantly reduced
- expression of Tjp1 mRNA in the enteroids (enteroids; [2]): most dramatically reduced
- expression of Arid3a in the enteroids (enteroids; ethanolamine treatment): significantly increased
- expression of miR101a-3p in enteroids (enteroids; ethanolamine treatment): significantly increased
- miR101a-3p promoter activity (miR101a-3p promoter; vector carrying −1 to 500 bp fragment): no change
- miR101a-3p promoter activity (miR101a-3p promoter; vector carrying −1 to 1500 bp fragment): significantly increased
- miR101a-3p promoter activity (miR101a-3p promoter; vector carrying −1 to −1000 bp fragment): significantly increased
- miR101a-3p promoter luciferase activity (miR101a-3p promoter; vector with −1 to −2000 bp of TSS vs empty vector): increased
- expression of inflammatory markers like IL-1, IL-6, and TNF-α (Caco2 cells; FIG. 12C, Caco2 culture experiments): significantly reduced
